Laboratory results from US9999614B2, “Combination for the prophylaxis and treatment of behavioural, mental, and cognitive disorders” (LTD “VALENTA-INTELLEKT”, priority 2012, dated 2018).

System: amnestic effect caused by mice swimming in cold water, simultaneously rotating wheel to the point of exhaustion
Assay: CPAR, amnesia induced by swimming in cold water with wheel rotation to the point of exhaustion
Type: in vivo
Conditions: Melatonin 5 mg, Memantin 10 mg mono-use
Procedure: For this, the active substances Melatonin 3 mg/Memantin 10 mg, Melatonin 5 mg/Memantin 20 mg, Melatonin 10 mg/Memantin 20 mg were taken, and doses recommended for human beings were converted into doses adapted for mice according to the formula “(active substance/70(average weight of a human being))×7”. Then the compositions were dissolved in 5 mL of the solution and, according to the given formula, introduced to animals intraperitoneally once a day for 5 days.
The CPAR test is the main model for evaluating substance influences on formation and replication of short-time memory in a normal condition and in an abnormal condition, i.e., induced amnesia. The CPAR is the most informative method among the methods that are used today for evaluating efficiency of substances with influence on the CNS of mammals (see, “Manual for Experimental (Pre-Clinical) Studies of New Pharmacological Substances”, 2000). The CPAR (conditioned passive avoidance reflex in a dark, light chamber) was taught to the mice on the basis of electrodermal response according to the method proposed by Cumin et al. (1982) with due regard to the recommendations given by Mondadori et al. (1990). The installation for mice, as produced by Lafayette Instrument Co., USA, was a black chamber with the electrode floor and a white plastic platform that was arranged on the floor in the center of the chamber. The mice, one by one, were put onto the plastic platform. The animals went/jumped down onto the electrode floor where they received an electric current shock, i.e., punishment. Electric current was supplied after the time when an animal stood on the floor with all its four legs. The natural response of the animals is to go back to the current-free or safe platform. After several minutes of teaching, 5 minutes on the average, mice developed CPAR and remained on the safe platform. Tests for memorizing CPAR were conducted in successive time intervals after amnesic action. In a case where an animal went/jumped down onto the platform within 1 minute, it was recorded as having retrograde amnesia of the passive avoidance skill. The compositions were studied in comparison with Melatonin 5 mg (mono-use) and Memantin 10 mg (mono-use), according to the above formula for adapting to animal models.
The antiamnestic action of the compositions on the amnesia model induced by swimming of mice in cold water with wheel rotation to the point of exhaustion. Studies were conducted on white non-linear male mice having a weight of 20-24 g with developing CPAR in the animals as in the previous studies. The animals were put, one by one, into a container filled with water and equipped with a rotating wheel. After teaching CPAR, the mice swam in cold water, simultaneously rotating the wheel to the point of exhaustion. The CPAR maintenance was checked in successive time intervals. As false imitation of swimming in cold water, mice were put onto a pad consisting of wet cold wadding. The substances and an isotonic solution of sodium chloride (control) were studied in comparison with Melatonin 5 mg (mono-use) and Memantin 10 mg (mono-use), in accordance with the above formula for adapting to animal models, by intraperitoneal introduction before teaching mice, once a day for 5 days.

SMILES | Latent time of entering into the dark chamber (1 day after teaching) [s] | Number of mice not entered into the dark chamber, % (1 day after teaching) [%] | Latent time of entering into the dark chamber (3 days after teaching) [s] | Number of mice not entered into the dark chamber, % (3 days after teaching) [%] | Latent time of entering into the dark chamber (7 days after teaching) [s] | Number of mice not entered into the dark chamber, % (7 days after teaching) [%] | Latent time of entering into the dark chamber (10 days after teaching) [s] | Number of mice not entered into the dark chamber, % (10 days after teaching) [%]
COc1ccc2[nH]cc(CCNC(C)=O)c2c1 [Melatonin, N-acetyl-5-methoxytriptamine] | 109.3 ± 9.8 | 61.5 | 105.4 ± 13.5 | 46.1 | 104.6 ± 15.1 | 38.5 | 100.9 ± 17.4 | 30.7
CC12CC3CC(C)(C1)CC(N)(C3)C2 [Memantin] | 111.3 ± 22.3 | 41.6 | 115.9 ± 16.5 | 50 | 117.4 ± 28.1 | 66.6 | 118.0 ± 23.3 | 66.6
